The test system of one data set is βTC3 cells. Put plainly: TUNEL apoptosis assay in βTC3 cells. It counts as cell-based. Conditions: 0.1 mM DHK for five days. Here is the method: 1B: Glutamate overstimulation causes increased β-cell apoptosis. 24 hours after plating, βTC3 cells were incubated for five days with 0.5 mM glutamate, and cell apoptosis was assessed by TUNEL assay. The cell nuclei were labelled with PrI. Histograms on the right represent TUNEL positive cells per field, and are the mean±SE of two independent experiments performed in duplicate.
6C TUNEL assay: 24 hours after plating, βTC3 cells were incubated for five days with 0.1 mM DHK, and cell apoptosis was assessed by TUNEL assay. Cell nuclei were labelled with PrI. Data are presented as TUNEL positive cells per field (histograms on the right), and are the mean±SE of two independent experiments performed in duplicate. * P<0.05
6D ShRNA interference. βTC3 cells were transfected with two different shRNA directed against GLT1 (Sh1, Sh3) or a control shRNA (ShC), and three days after transfection, cells were assayed for 3[H]-D-aspartate uptake (b) or lysed and the presence of GLT assayed by western blotting (a) or fixed and processed for TUNEL (c).
Apoptosis of β-TC3 cells was estimated using the terminal deoxynucleotidyltransferase-mediated dUTP-biotin nick end-labelling assay (TUNEL). […] Tunel-positive cells were counted by two independent observers using a 40× objective from at least 40 randomly selected fields per coverslip. […]

Another data set concerns the target T1, GLT1 (Homo sapiens, UniProt P43004).
T1 construct: from tissue; host or cells: isolated human pancreatic islets from cadaveric multiorgan donors
Put plainly: Na-dependent [3H]-D-aspartate uptake in isolated human islets. The data set is classed as cell-based. More on the design: dose or concentration left out as unconfirmed. How it is done:
3B: 3H-D Aspartate uptake. The Na-dependent (NaCl) and Na-independent (ChCl) [3H]-D-Aspartate uptake was measured in 40, hand picked, isolated human islets. […] Data are expressed as % of Na-dependent uptake (NaCl) and represent the mean±SE of at least three independent experiments performed in triplicate. * (DHK versus controls) P<0.001.
Human pancreatic islets were isolated from the pancreases of cadaveric multiorgan donors by using the procedure already described by Ricordi (Ricordi, et al, 1988). The islets used in this study were isolated from eight different organs. After the isolation, the islets were purified from the contaminant exocrine tissue by centrifugation on Ficoll gradients, obtaining a final purity that ranged from 60% to 80%, as assayed by dithizone staining (Ricordi et al, 1988). Islets were then cultured in RPMI 1640 tissue culture medium. After a 48-h stabilization culture, old medium was replaced with fresh medium and islets were cultured until used for insulin secretory studies, RNA extraction and uptake experiments. For apoptosis assay, fresh medium containing glutamate (0.5 or 5 mM) or DHK (0.05 or 0.1 mM) was replaced and islets were cultured for additional five days.
150.000 cells/well were plated in a 24-wells plate, and grown until confluence. […]

T1 sequence (P43004 whole entry): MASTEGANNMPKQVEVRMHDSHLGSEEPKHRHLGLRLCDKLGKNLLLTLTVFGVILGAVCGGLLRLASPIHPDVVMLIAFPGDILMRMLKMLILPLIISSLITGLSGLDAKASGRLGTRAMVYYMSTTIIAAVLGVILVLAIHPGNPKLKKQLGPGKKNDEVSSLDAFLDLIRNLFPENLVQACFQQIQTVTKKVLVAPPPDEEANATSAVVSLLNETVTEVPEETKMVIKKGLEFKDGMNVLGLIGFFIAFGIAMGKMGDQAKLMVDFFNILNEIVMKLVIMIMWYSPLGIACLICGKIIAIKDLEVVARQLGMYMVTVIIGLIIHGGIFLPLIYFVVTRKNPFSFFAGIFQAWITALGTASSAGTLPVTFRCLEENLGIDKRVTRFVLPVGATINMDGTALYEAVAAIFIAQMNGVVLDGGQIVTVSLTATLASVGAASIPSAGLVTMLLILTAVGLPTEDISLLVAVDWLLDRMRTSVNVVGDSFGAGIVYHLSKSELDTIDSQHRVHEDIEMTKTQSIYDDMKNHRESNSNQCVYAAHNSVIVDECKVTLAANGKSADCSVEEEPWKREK

For the compound `CC(C)[C@H]1CN[C@H](C(=O)O)[C@H]1CC(=O)O` [DHK, Dihydrokainic Acid], the “cause of cytotoxicity by TUNEL assay” value in the data set on βTC3 cells was “due to apoptosis”. Besides, the “Na-dependent transport of aspartate” value at GLT1 is recorded as “completely inhibited”.

Source of the values: patent US8722343B2, “Methods and compositions for the diagnosis and treatment of diabetes” (priority 2008, dated 2014).
